Patent US10793552B2, “Amino pyrimidine ssao inhibitors” (Eli Lilly and Company, priority 2016, dated 2020)
Where two headings read alike, the source gives them in different places. Each block holds one compound with its values, some of them ahead of it.

Experiments:
Format in all cases: in vivo
SSAO = SSAO (Rattus norvegicus (Rat), UniProt O08590); experiment: SSAO Target Engagement in rat plasma and liver; conditions: for activity at 0.005 mg/kg / activity at 0.025 mg/kg / activity at 0.12 mg/kg / activity at 0.6 mg/kg / activity at 3 mg/kg / activity at 15 mg/kg: mean ± SEM
SSAO, sequence (O08590 whole entry): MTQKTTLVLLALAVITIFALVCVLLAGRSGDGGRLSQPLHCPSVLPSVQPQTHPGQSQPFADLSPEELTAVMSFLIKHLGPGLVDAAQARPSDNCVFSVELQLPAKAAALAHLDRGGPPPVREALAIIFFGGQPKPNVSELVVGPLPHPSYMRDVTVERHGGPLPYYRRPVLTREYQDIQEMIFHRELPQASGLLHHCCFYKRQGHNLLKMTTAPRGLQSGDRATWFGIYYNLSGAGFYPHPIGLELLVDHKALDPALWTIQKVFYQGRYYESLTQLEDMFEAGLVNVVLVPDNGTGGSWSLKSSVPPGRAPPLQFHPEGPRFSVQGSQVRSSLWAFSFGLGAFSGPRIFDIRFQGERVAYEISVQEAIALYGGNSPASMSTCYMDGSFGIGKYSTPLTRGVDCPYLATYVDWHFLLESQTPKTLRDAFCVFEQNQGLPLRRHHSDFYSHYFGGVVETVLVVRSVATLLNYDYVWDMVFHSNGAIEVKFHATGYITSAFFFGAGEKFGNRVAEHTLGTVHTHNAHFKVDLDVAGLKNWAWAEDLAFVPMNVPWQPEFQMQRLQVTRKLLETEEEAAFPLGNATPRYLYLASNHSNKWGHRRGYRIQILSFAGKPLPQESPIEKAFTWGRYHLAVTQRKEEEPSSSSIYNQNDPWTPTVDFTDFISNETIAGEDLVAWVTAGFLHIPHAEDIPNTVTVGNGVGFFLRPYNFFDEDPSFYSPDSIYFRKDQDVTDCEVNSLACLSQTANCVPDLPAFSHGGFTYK
Method: The SSAO activity in rat plasma and liver tissues are measured using the MAO-Glo™ assay kit from Promega (V1402). The residual SSAO activity in rats after compound treatment is estimated by measuring the total amine oxidase activity in plasma or liver lysates that are insensitive to the presence of the MAO inhibitor Clogyline and Pargyline. Rats are administered the compound of Example 2 at the doses of 15, 3, 0.6, 0.12, 0.025, 0.005 mg/kg. The control group is administered with the same volume (2 ml/kg) of the dosing vehicle (hydroxyethyl cellulose 1% w/v, 0.25% Tween 80). Plasma and liver at 2 or 24 hours post compound treatment are harvested and stored at −78° C. until analysis. Tissue lysates are prepared by homogenization in a lysis buffer (20 mM HEPES, pH 7.4, 150 mM NaCl, 1 mM EDTA, 1 mM EGTA, 1% Triton X-100 and 1× Roche Complete protease inhibitor tablet). Tissue particles are removed by centrifugation at 12,000 rpm at 4° C. for 30 minutes. 40 μl of plasma or liver lysates is incubated with Clogyline (10 μM) and Pargyline (10 μM) for 20 minutes at room temperature before the addition of the luminogenic substrate (50 μM) for 60 minutes. The product generated is quantified according to the manufacture's procedure. The fraction of activity that is insensitive to the presence of the MAO inhibitors is used as the surrogate for the residual SSAO activity. The compound of Example 2 was evaluated in the protocol essentially as described above administered at various doses.

[1] = tested on: C57BL/6N mice fed 3H diet; experiment: Mouse Model of NASH and Fibrosis Induced by 3H Diet; conditions: mouse 3H diet; for Score (0-3) Hepatic inflammation Left / Score (0-3) Macrovesicular vaculation Left / Score (0-3) Perisinusoidal fibrosis Left: left lobe; for Score (0-3) Hepatic inflammation Left / Score (0-3) Macrovesicular vaculation Left / Score (0-3) Perisinusoidal fibrosis Left / Score (0-3) Hepatic inflammation Right / Score (0-3) Macrovesicular vaculation Right / Score (0-3) Perisinusoidal fibrosis Right: mean ± SEM; for Score (0-3) Hepatic inflammation Right / Score (0-3) Macrovesicular vaculation Right / Score (0-3) Perisinusoidal fibrosis Right: right lobe
Method: Male C57BL/6N mice are fed with D09100301 diet (Research Diets, 40% fat, 2% cholesterol, 24% fructose, (the, high fat, high cholesterol and high fructose, the “3H diet”) for 150 days. Each mouse is then singly housed after 5 days for an acclimation period. Plasma alanine aminotransferase (ALT) and cytokeratin 18 (CK18) are measured. After one week of recovery, the mice are randomized into 5 groups based on their ALT values, CK18 values, and body weight. […] Blood is collected from mice treated with the compound of Example 6 for 76 days 2 hours after the last dose. Compound levels in the plasma are analyzed by mass spectroscopy. […] At the completion of the study, the animals are sacrificed and their livers excised. Two sections of the left and right lobes are fixed in neutral buffered 10% formalin. Liver tissue slides are stained with hematoxylin and eosin (H&E), Sirius red, and Masson's Trichrome to prepare slides for pathological analysis. All specimens are examined microscopically and scored as a modified Brunt score NASH Activity Score. Scores are based on the grading scheme and end-points as described in Brunt E. M. et al., “Histopathology of nonalcoholic fatty liver disease,” World J. of Gastroenterol, 2010, 16(42), 5286-5296. Group means are then calculated for each individual end-point. The following endpoints are used to characterize the fast food model of NASH in mice as modified from NASH endpoints (See Brunt, E. M. “Histopathology of nonalcoholic fatty liver disease,” Clin Liver Dis., 2009, 13, 533-544 and Brunt, E. M, et al., “Nonalcoholic steatohepatitis: A proposal for grading and staging the histological lesions”, Am J Gastroenterology, 1999, 94(9), 2467-2474.

[2] = Plasma compound levels in 3H diet mice by mass spectroscopy; conditions: mouse, treated 76 days, 2 hours after the last dose, all doses
Method: Male C57BL/6N mice are fed with D09100301 diet (Research Diets, 40% fat, 2% cholesterol, 24% fructose, (the, high fat, high cholesterol and high fructose, the “3H diet”) for 150 days. Each mouse is then singly housed after 5 days for an acclimation period. Plasma alanine aminotransferase (ALT) and cytokeratin 18 (CK18) are measured. After one week of recovery, the mice are randomized into 5 groups based on their ALT values, CK18 values, and body weight. Animals of each group are administrated either vehicle (0.5% methylcellulose (MC)+0.25% Tween 80 in distilled water) or the compound of Example 6 (at a 0.06, 2, 6, and 20 mg/kg dose) once daily in a volume of 5 ml/kg for 11 weeks. Blood is collected from mice treated with the compound of Example 6 for 76 days 2 hours after the last dose. Compound levels in the plasma are analyzed by mass spectroscopy.

[3] = liver, 24 hour, n = 6, read-out: SSAO Activity (%) Liver 24 hour
[4] = plasma, 2 hour, n = 6, read-out: SSAO Activity (%) Plasma 2 hour
[5] = plasma, 24 hour, n = 6, read-out: SSAO Activity (%) Plasma 24 hour
[6] = 20 mg/kg once daily 11 weeks, p < 0.05 vs vehicle

activity at 0.005 mg/kg (SSAO; [3]): 75 ± 18%
activity at 0.005 mg/kg (SSAO; [4]): 31 ± 3%
activity at 0.005 mg/kg (SSAO; [5]): 70 ± 7%
activity at 0.025 mg/kg (SSAO; [3]): 68 ± 14%
activity at 0.025 mg/kg (SSAO; [4]): 21 ± 1%
activity at 0.025 mg/kg (SSAO; [5]): 55 ± 9%
activity at 0.12 mg/kg (SSAO; [3]): 45 ± 8%
activity at 0.12 mg/kg (SSAO; [4]): 7 ± 1%
activity at 0.12 mg/kg (SSAO; [5]): 35 ± 4%
activity at 0.6 mg/kg (SSAO; [3]): 16.2 ± 2.9%
activity at 0.6 mg/kg (SSAO; [4]): 4.3 ± 0.8%
activity at 0.6 mg/kg (SSAO; [5]): 16.3 ± 2.6%
activity at 3 mg/kg (SSAO; [3]): 7.1 ± 1.7%
activity at 3 mg/kg (SSAO; [4]): 3.6 ± 1%
activity at 3 mg/kg (SSAO; [5]): 8.8 ± 1.3%
activity at 15 mg/kg (SSAO; [3]): 9.6 ± 2.6%
activity at 15 mg/kg (SSAO; [4]): -0.6 ± 0.3%
activity at 15 mg/kg (SSAO; [5]): 6.6 ± 1.8%
inhibition of SSAO activity in rat plasma and liver (SSAO; doses 0.005 to 15 mg/kg): dose-dependently inhibits SSAO activity
SMILES: Cl.Cl.NC/C(=C\F)COc1cnc(N2CCC(O)CC2)nc1 [Example 2, 1-[5-[(E)-2-(Aminomethyl)-3-fluoro-allyloxy]pyrimidin-2-yl]piperidin-4-ol dihydrochloride]

plasma compound levels (in words) [2]: dose-dependent increase
SMILES: Cl.Cl.NC/C(=C\F)COc1cnc(N2CC[C@H](O)C2)nc1 [Example 6, (3S)-1-[5-[(E)-2-(Aminomethyl)-3-fluoro-allyloxy]pyrimidin-2-yl]pyrrolidin-3-ol; Dihydrochloride]
Score (0-3) Hepatic inflammation Left ([1]; 0.6 mg/kg once daily 11 weeks): 2.6 ± 0.1
Score (0-3) Macrovesicular vaculation Left ([1]; 0.6 mg/kg once daily 11 weeks): 2.5 ± 0.1
Score (0-3) Perisinusoidal fibrosis Left ([1]; 0.6 mg/kg once daily 11 weeks): 2.4 ± 0.2
Score (0-3) Hepatic inflammation Right ([1]; 0.6 mg/kg once daily 11 weeks): 2.5 ± 0.1
Score (0-3) Macrovesicular vaculation Right ([1]; 0.6 mg/kg once daily 11 weeks): 2.6 ± 0.1
Score (0-3) Perisinusoidal fibrosis Right ([1]; 0.6 mg/kg once daily 11 weeks): 1.9 ± 0.2
Score (0-3) Hepatic inflammation Left ([1]; 2 mg/kg once daily 11 weeks): 2.5 ± 0.1
Score (0-3) Macrovesicular vaculation Left ([1]; 2 mg/kg once daily 11 weeks): 2.5 ± 0.1
Score (0-3) Perisinusoidal fibrosis Left ([1]; 2 mg/kg once daily 11 weeks): 2.5 ± 0.2
Score (0-3) Hepatic inflammation Right ([1]; 2 mg/kg once daily 11 weeks): 2.6 ± 0.1
Score (0-3) Macrovesicular vaculation Right ([1]; 2 mg/kg once daily 11 weeks): 2.7 ± 0.1
Score (0-3) Perisinusoidal fibrosis Right ([1]; 2 mg/kg once daily 11 weeks): 1.8 ± 0.2
Score (0-3) Hepatic inflammation Left ([1]; 6 mg/kg once daily 11 weeks): 2.5 ± 0.2
Score (0-3) Macrovesicular vaculation Left ([1]; 6 mg/kg once daily 11 weeks): 2.9 ± 0.1
Score (0-3) Perisinusoidal fibrosis Left ([1]; 6 mg/kg once daily 11 weeks): 2.6 ± 0.2
Score (0-3) Hepatic inflammation Right ([1]; 6 mg/kg once daily 11 weeks): 2.6 ± 0.2
Score (0-3) Macrovesicular vaculation Right ([1]; 6 mg/kg once daily 11 weeks): 2.7 ± 0.1
Score (0-3) Perisinusoidal fibrosis Right ([1]; 6 mg/kg once daily 11 weeks): 2.1 ± 0.3
hepatic inflammation (in words) ([1]; 20 mg/kg): significant decrease
macrovesicular vaculation (in words) ([1]; 20 mg/kg): significant decrease
perisinusoidal fibrosis (in words) ([1]; 20 mg/kg): significant decrease
Score (0-3) Macrovesicular vaculation Left ([1]; 20 mg/kg once daily 11 weeks): 2.4 ± 0.2
Score (0-3) Perisinusoidal fibrosis Left ([1]; 20 mg/kg once daily 11 weeks): 1.9 ± 0.2
Score (0-3) Hepatic inflammation Left ([1]; 20 mg/kg once daily 11 weeks, p < 0.01 vs vehicle): 2.1 ± 0.1
Score (0-3) Hepatic inflammation Right [1, 6]: 2.1 ± 0.1
Score (0-3) Macrovesicular vaculation Right [1, 6]: 2.3 ± 0.1
Score (0-3) Perisinusoidal fibrosis Right [1, 6]: 1.5 ± 0.2
triglyceride levels in blood (in words) ([1]; 6 and 20 mg/kg): decreased triglyceride levels
ALT (in words) ([1]; all treated groups): significant decrease
